Experimental data taken from patent EP0133407A1, “Acetylene derivatives having an enzyme-inhibiting activity, their preparation and their use as medicines” (Etablissement Public dit: CENTRE NATIONAL DE LA RECHERCHE …, priority 1983, dated 1985).

Columns and labels:
[1] = tested on: Cellules d'embryon de poulet; assay: Cell growth inhibition, normal cells: chick embryo cells; type: cell-based
[2] = tested on: Fibroblastes humains MRC 5; assay: Cell growth inhibition, normal cells: MRC 5 fibroblasts; type: cell-based
[3] = tested on: Cellules de la membrane amniotique humaine; assay: Cell growth inhibition / toxicity, normal cells: human amniotic membrane cells; type: cell-based
[4] = tested on: Cellules de rein de rat NRK B 77; assay: Cell growth inhibition, transformed cells: NRK B 77; type: cell-based
Source text: (§1) Les tableaux 1 et 2 ci-après donnent le résultat de ces tests qui portent sur trois types de cellules transformées. Les chiffres indiqués représentent le pourcentage d'inhibition de la croissance de cellules traitées par des doses de plus en plus fortes de composé 6a (chlorhydrate) par rapport à celles des mêmes cellules non traitées.

NRK LA31 à 33° = assay: Cell growth inhibition, transformed cells: NRK LA31 at 33°; type: cell-based, rat
Source text: as §1

Cellules HeLa humaines = assay: Cell growth inhibition, transformed cells: HeLa; type: cell-based
Source text: as §1

Hepatomes de rat = assay: Cell growth inhibition, transformed cells: rat hepatomas; type: cell-based
Source text: as §1

[5] = tested on: cellules de mélanomes humains M3 DAU; assay: Complementary in vitro test, dead cells after four days of growth: melanoma M3 DAU; type: cell-based; settings: untreated 6, 5760 min
Source text: as §1

[6] = tested on: cellules de mélanomes humains M1 DOR; assay: Complementary in vitro test, dead cells after four days of growth: melanoma M1 DOR; type: cell-based; settings: untreated 24, 5760 min
cellules NRK (normales) = assay: Growth inhibition in tissue culture, normal NRK cells; type: cell-based; settings: 6a solutions made by the second method (example 2) compared with product of example 1
[7] = tested on: Cellules d'embryon de poulet; assay: Transformation of chick embryo cells induced by Rous sarcoma virus; type: cell-based
Source text: (§2) Le produit est efficace contre la transformation des cellules d'embryon de poulet induite par le virus du sarcome de ROUS.

virus du sarcome de ROUS = assay: Replication of Rous sarcoma virus; type: cell-based
Source text: as §2

[8] = Acute toxicity (DL50) in mice; design: species or system souris swiss; settings: mouse, in vivo, two independent measurements
Description: (§3) Les tests dont les résultats sont donnés ci-dessous ont été réalisés avec des solutions du composé 6a (sous forme de chlorhydrate). Dans ces tests, on a étudié l'activité vis à vis de la croissance tumorale (carcinome et mélanome) et la survie de souris swiss auxquelles ont été injectées des quantités variables de cellules d'ascites de Krebs.
Toxicité aigüe : La DL50 du composé 6a (chlorhydrate) déterminée sur ces souris par deux mesures indépendantes est de 60 mg/kg.

[9] = tested on: clone FAZA 967 de l'hépatome de rat REUBER H 35; assay: Toxicity on hepatoma clone FAZA 967 (LDH, GOT, GPT assayed in the medium); type: cell-based
[10] = tested on: mélanome DAU d'origine humaine; assay: In vivo tumour growth: human melanoma DAU in nude mice; design: species or system souris nude; souris traitées présentant un retard dans le développement tumoral: unit not given here; settings: 5.10^5 melanoma DAU cells; 2 x 15 mg/kg on day 1, 2 x 6 mg/kg days 2 to 7; versus untreated controls
Description: (§4) Deux types de tumeurs ont été utilisés : • - un carcinome de Lewis (sur souris swiss), • - un mélanome DAU d'origine humaine (sur souris nude).
Les souris ont reçu une injection de 5.10^5 cellules de mélanome DAU Celles traitées ont reçu : • - 2 x 15 mg/kg le premier jour, • - 2 x 6 mg/kg du deuxième au septième jour.

carcinome de Lewis = assay: In vivo tumour growth: Lewis carcinoma in mice; design: species or system souris swiss; settings: 3.10^5 Lewis carcinoma cells; daily 6 mg/kg or 12 mg/kg
Source text: as §4
Le test est effectué sur des souris auxquelles 3.10^5 cellules de carcinome de Lewis ont été inoculées.

[11] = tested on: cellules d'ascites de KREBS (carcinome); assay: Survival of mice injected with Krebs ascites cells; type: in vivo, souris swiss; design: taux de survie: unit not given here
Source text: as §3
Les résultats des tests ont été obtenus principalement à partir de souris' auxquelles ont été injectées des cellules d'ascites de KREBS (carcinome) dont l'origine a été décrite par G. KLEIN et E. KLEIN Cancer Research 1951-11-466.

[12] = tested on: cellules de leucémie L1210; assay: Survival of mice inoculated with leukaemia L1210 cells; type: in vivo, souris; settings: 3.10^5 L1210 cells; 6 mg/kg for 7 days
Source text: Une étude a aussi été faite sur des souris auxquelles avaient été inoculées 3.10^5 cellules de leucémie L1210.

Stability of solutions = type: physicochemical; settings: concentrated solutions
Source text: Il convient de préciser que les solutions concentrées du produit 6a sont instables. Le produit est conservé sous forme de solutions diluées, par exemple le chlorhydrate peut être conservé en solution aqueuse diluée.

[13] = tested on: lignées de lymphomes de souris; assay: In vivo activity against mouse lymphoma lines; settings: certain mouse lymphoma lines
[14] = concentration 1,5.10^-3 (unit not given)
[15] = concentration 2.10^-3 (unit not given)
[16] = concentration 3.10^-3 (unit not given)
[17] = concentration 4.10^-3 (unit not given)
[18] = concentration 5.10^-3 (unit not given)

CC(C)(N)C#CC=O [composé 6a]
% d'inhibition de la croissance cellulaire ([1]; 1.10^-4 M): 0% | % d'inhibition de la croissance cellulaire ([1]; 2.10^-4 M): 0% | % d'inhibition de la croissance cellulaire ([1]; 4.10^-4 M): 10% | % d'inhibition de la croissance cellulaire ([1]; 5.10^-5 M): 0% | % d'inhibition de la croissance cellulaire ([1]; 6.10^-4 M): 12% | % d'inhibition de la croissance cellulaire ([2]; 1.10^-4 M): 0% | % d'inhibition de la croissance cellulaire ([2]; 2.10^-4 M): 0% | % d'inhibition de la croissance cellulaire ([2]; 4.10^-4 M): 0% | % d'inhibition de la croissance cellulaire ([2]; 5.10^-5 M): 0% | % d'inhibition de la croissance cellulaire ([2]; 6.10^-4 M): 18% | % d'inhibition de la croissance cellulaire ([3]; 6.10^-4 M): 0% | effet sur la croissance et sur la morphologie des cellules ([3]; concentrations de 5.10 et de 10^-4 mole-litre ^-1): aucun effet | % d'inhibition de la croissance cellulaire ([4]; 1.10^-4 M): 16% | % d'inhibition de la croissance cellulaire ([4]; 2.10^-4 M): 31% | % d'inhibition de la croissance cellulaire ([4]; 4.10^-4 M): 57% | % d'inhibition de la croissance cellulaire ([4]; 5.10^-5 M): 0% | inhibition de la croissance en culture de tissus ([4]; 6a solutions made by the second method (example 2) compared with product of example 1, NRK-B77 (transformées)): activité en tous points comparable à celle observée avec le produit de l'exemple 1 | % d'inhibition de la croissance cellulaire ([4]; 6.10^-4 M): 79% | % d'inhibition de la croissance cellulaire (NRK LA31 à 33°; 1.10^-4 M): 0% | % d'inhibition de la croissance cellulaire (NRK LA31 à 33°; 2.10^-4 M): 11% | % d'inhibition de la croissance cellulaire (NRK LA31 à 33°; 4.10^-4 M): 63% | % d'inhibition de la croissance cellulaire (NRK LA31 à 33°; 5.10^-5 M): 0% | % d'inhibition de la croissance cellulaire (NRK LA31 à 33°; 6.10^-4 M): Mort | % d'inhibition de la croissance cellulaire (Cellules HeLa humaines; 1.10^-4 M): 18% | % d'inhibition de la croissance cellulaire (Cellules HeLa humaines; 2.10^-4 M): 36% | % d'inhibition de la croissance cellulaire (Cellules HeLa humaines; 4.10^-4 M): 78% | % d'inhibition de la croissance cellulaire (Cellules HeLa humaines; 5.10^-5 M): 0% | % d'inhibition de la croissance cellulaire (Cellules HeLa humaines; 6.10^-4 M): 91% | % d'inhibition de la croissance cellulaire (Hepatomes de rat; 2.10^-4 M): 50% | % d'inhibition de la croissance cellulaire (Hepatomes de rat; 6.10^-4 M): 60% | % de cellules mortes après quatre jours de croissance [5, 14]: 24% | % de cellules mortes après quatre jours de croissance [5, 15]: 47% | % de cellules mortes après quatre jours de croissance [5, 16]: 92% | % de cellules mortes après quatre jours de croissance [5, 17]: 98% | % de cellules mortes après quatre jours de croissance [5, 18]: 98% | % de cellules mortes après quatre jours de croissance [6, 14]: 21% | % de cellules mortes après quatre jours de croissance [6, 15]: 28% | % de cellules mortes après quatre jours de croissance [6, 16]: 24% | % de cellules mortes après quatre jours de croissance [6, 17]: 26% | % de cellules mortes après quatre jours de croissance [6, 18]: 23% | inhibition de la croissance en culture de tissus (cellules NRK (normales)): activité en tous points comparable à celle observée avec le produit de l'exemple 1 | efficacité contre la transformation des cellules induite par le virus du sarcome de ROUS [7]: efficace | réplication du virus (virus du sarcome de ROUS): n'est pas inhibée | LD50 [8]: 60 mg/kg | toxicité du produit, estimée par dosage dans le milieu des enzymes LDH, GOT et GPT [9]: aucune toxicité | retard dans le développement tumoral [10]: dizaine | souris traitées présentant un retard dans le développement tumoral [10]: 60 | croissance tumorale (carcinome de Lewis): net ralentissement de la croissance tumorale | survie ([11]; 5.10^5 cells inoculated, 6 mg/kg for 7 days): provoque un retard dans la mort mais n'augmente pas le taux de survie | taux de survie ([11]; 5.10^5 cells inoculated, 6 mg/kg, treatment of 21 days): ≤ 90 | survie ([11]; 5.10^5 cells, 2 x 15 mg/kg on day 1 then 2 x 6 mg/kg the 6 following days, compared with 21-day treatment): Le même effet | survie ([11]; 10 cellules (so in the source), 2 x 15 mg/kg on day 1 then 2 x 6 mg/kg the 6 following days): encore suffisants | survie ([11]; inoculation of 5.10^6 cells, 2 x 15 mg/kg on day 1 then 2 x 6 mg/kg the 6 following days): efficacité est moindre | survie ([11]; inoculation of 10 cellules (so in the source), 6 mg/kg daily for 7 days): guérison complète jusque 6 mois | survie [12]: le même effet que dans le cas du carcinome | stabilité des solutions (Stability of solutions): instables

CCOC(C#CC(C)(C)N)OCC [composé 9a]
activité in vivo [13]: actif sélectivement
